Test results published in publication PMC7395068, “The evolution of strategies to minimise the risk of human drug-induced liver injury (DILI) in drug discovery and development” (Archives of Toxicology, 2020).

Columns and labels:
[1] = Total human plasma exposure Cmax.tot; format: in vivo; settings: across literature references
HepaRG cells = settings: HepaRG cells, BMCs in relation to 10 × human Cmax.tot; ref National Toxicology Program; cited from earlier work

Structure (SMILES) | difference in Cmax.tot values utilised across studies [1] | DILI identification by high-throughput transcriptomics (HepaRG cells)
CC(C)C(=O)Nc1ccc([N+](=O)[O-])c(C(F)(F)F)c1 [flutamide, reference compound] | 16.6 fold | 
Cc1c(C)c2c(c(C)c1O)CCC(C)(COc1ccc(CC3SC(=O)NC3=O)cc1)O2 (centres unmarked) [troglitazone, reference compound] |  | identified
